Reference: US4912097A, “Novel 11 β-alkynylphenyl-10-nor-steroids” (Roussel Uclaf, priority 1986, dated 1990)
Like-named read-outs stand apart in the source and are kept apart here.

Tests used:
gestation in the rat = assay: Abortifacient activity in the rat; assay type: in vivo; settings: 3 mg/kg orally on Day D 9 of gestation; sacrificed 72 hours after treatment
Description: Day D 1 of gestation was determined by the presence of spermatozoids in the vaginal smears and on Day D 9 of gestation, the product was administered orally in suspension in carboxymethyl cellulose containing 0.5% of Tween. The animals were sacrificed 72 hours after the treatment and the uterus was examined to determine the state of gestation.

[1] = target: T1, Gluoccocorticoid Receptor of the Rat Thymus (Rattus norvegicus, UniProt P06536); assay: Relative bonding affinity (ARL), glucocorticoid receptor of the rat thymus; assay type: binding, rat (male Sprague Dawley EOPS); settings: for relative bonding affinity (ARL), Glucocorticoid: displacement of tritiated dexamethasone
T1 construct: The thymuses were removed and homogenized at 0° C; from tissue; host or cells: thymus of adrenalectomised male Sprague Dawley rats; high-speed supernatant of the homogenate
T1 sequence (P06536 1-795): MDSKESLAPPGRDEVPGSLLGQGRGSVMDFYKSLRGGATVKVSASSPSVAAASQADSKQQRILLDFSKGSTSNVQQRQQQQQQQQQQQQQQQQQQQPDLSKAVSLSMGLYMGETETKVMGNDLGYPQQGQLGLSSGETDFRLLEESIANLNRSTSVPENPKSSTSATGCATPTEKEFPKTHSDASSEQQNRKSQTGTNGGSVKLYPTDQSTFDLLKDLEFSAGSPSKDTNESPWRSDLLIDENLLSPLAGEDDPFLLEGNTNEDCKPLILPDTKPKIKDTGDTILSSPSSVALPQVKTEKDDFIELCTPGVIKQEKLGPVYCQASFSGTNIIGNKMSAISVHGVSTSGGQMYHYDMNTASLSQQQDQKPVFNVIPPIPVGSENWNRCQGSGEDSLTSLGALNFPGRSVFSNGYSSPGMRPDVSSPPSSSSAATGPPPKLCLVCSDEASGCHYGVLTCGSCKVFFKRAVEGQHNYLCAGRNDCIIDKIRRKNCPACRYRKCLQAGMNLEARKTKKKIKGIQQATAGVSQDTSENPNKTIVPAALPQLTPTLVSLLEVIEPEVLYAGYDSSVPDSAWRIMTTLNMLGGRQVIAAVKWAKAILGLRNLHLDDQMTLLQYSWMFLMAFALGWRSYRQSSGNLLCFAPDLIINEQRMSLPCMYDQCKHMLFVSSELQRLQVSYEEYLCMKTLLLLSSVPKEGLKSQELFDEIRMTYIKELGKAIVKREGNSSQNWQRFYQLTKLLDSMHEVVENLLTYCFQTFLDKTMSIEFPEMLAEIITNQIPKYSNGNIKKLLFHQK
Description: (§1) Study of the activity upon the hormonal receptors.
Male Sprague Dawley EOPS rats of 160 to 200 g were surrenalectomised and 4 to 8 days after this ablation, the animals were sacrificed. The thymuses were removed and homogenized at 0° C. in a 10 mM Tris, 0.25M saccharose, 2 mM dithiothreitol, HCl pH 7.4 buffer with the aid of a Potter polytetrafluoroethylene dish (1 g of tissue per 10 ml of TS). The homogenate was then ultracentrifuged (105,000×90 mn) at 0° C. Aliquots of the supernatent fluid thus obtained were incubated at 0° for a period (t) with a constant concentration (T) of tritiated dexamethasone in the presence of increasing concentrations (0-2500. 10^-9 M) either of cold dexamethasone, or of cold product to be tested. The concentration of tritiated dexamethasone bound (B) was then measured in each incubate by the technique of adsorption on dextran charcoal.
(§2) The calculation of the relative bonding affinity (ARL) was identical for all the receptors.
(§3) The 2 curves were plotted as follows: the percentage of the tritiated hormone bound B/T as a function of the logarithm of the concentration of the reference hormone cold and B/T as a function of the logarithm of the concentration of the product tested cold.
(§4) The straight line of the equation I50 =(B/T max+B/T min)/2. B/T max=percentage of the tritiated hormone bound for one incubation of this tritiated hormone at the concentration (T) was determined. B/T min=percentage of the tritiated hormone bound for one incubation of this tritiated hormone at the concentration (T) in the presence of a great excess of the cold hormone (2500·10^-9 M).
(§5) The intersections of the straight line I50 and of the curves make it possible to estimate the concentrations of the cold reference hormone (CH) and of the cold product tested (CX) which inhibits 50% of the bonding of the tritiated hormone on the receptor. The relative affinity of the bonding (ARL) of the product tested was determined by the equation [formula]

[2] = target: T2, Progestogen Receptor of the Rabbit Uterus (Oryctolagus cuniculus, UniProt P06186); assay: Relative bonding affinity (ARL), progestogen receptor of the rabbit uterus; assay type: binding; settings: for relative bonding affinity (ARL), Progestogen: displacement of tritiated R
T2 construct: The uteruses were removed, weighed and homogenized at 0° C; from tissue; host or cells: uterus of non-adult, estradiol-treated rabbits; high-speed supernatant of the homogenate
T2 sequence (P06186 1-930): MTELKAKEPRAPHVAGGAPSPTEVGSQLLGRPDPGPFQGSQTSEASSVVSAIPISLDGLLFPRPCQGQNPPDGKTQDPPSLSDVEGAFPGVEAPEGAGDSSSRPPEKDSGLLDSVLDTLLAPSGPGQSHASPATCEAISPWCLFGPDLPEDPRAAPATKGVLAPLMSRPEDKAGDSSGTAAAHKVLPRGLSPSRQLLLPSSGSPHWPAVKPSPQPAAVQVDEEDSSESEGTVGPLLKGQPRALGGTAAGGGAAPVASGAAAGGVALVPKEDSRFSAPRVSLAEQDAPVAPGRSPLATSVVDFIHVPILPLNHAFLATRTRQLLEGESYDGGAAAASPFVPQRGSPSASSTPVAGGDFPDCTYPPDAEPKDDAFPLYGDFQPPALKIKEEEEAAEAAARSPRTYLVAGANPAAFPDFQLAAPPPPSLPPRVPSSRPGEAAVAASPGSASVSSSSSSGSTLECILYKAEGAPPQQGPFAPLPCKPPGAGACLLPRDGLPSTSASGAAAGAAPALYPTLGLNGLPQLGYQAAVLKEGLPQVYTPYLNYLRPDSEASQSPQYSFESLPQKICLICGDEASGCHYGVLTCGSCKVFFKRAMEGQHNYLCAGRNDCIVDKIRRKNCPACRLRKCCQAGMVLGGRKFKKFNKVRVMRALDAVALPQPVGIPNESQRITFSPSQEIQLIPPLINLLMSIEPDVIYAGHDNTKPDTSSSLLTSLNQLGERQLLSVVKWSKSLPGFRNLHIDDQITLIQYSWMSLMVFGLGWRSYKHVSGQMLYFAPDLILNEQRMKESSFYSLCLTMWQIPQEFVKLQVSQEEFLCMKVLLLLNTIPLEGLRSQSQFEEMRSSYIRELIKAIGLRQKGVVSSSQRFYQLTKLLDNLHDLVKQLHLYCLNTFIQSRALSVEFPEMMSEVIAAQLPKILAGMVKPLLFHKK
Description: as §1
Non-adult rabbits of about 1 kg are given a cutaneous application of 25 μg of estradiol and 5 days after this treatment, the animals were sacrificed. The uteruses were removed, weighed and homogenized at 0° C. with the aid of a Potter polytertrafluoroethylene dish in a buffered TS solution ([…], HCl pH 7.4) (1 g of tissue per 50 ml of TS). The homogenate was then ultracentrifuged (105,000 g×90 mm) at 0° C. Aliquots of the supernatent fluid thus obtained were incubated at 0° C. for a period (t) with a constant concentration (T) of tritiated Product R (17, 21-dimethyl-19-nor-Δ^-4,9 -pregnadien-3,20-dione) in the presence of increasing concentrations (0-2500. 10^-9 M) either of R cold, or of progesterone cold, or of the product to be tested cold. The concentration of tritiated R bound (B) was then measured in each incubate by the technique of adsorbtion on dextran charcoal.
as §2, §3, §4, §5

[3] = system: thymocytes of surrenalectomised rats; assay: Antiglucocorticoidal activity: incorporation of tritiated uridine in thymocytes treated with dexamethasone; assay type: cell-based, rat; settings: for opposition to the dexamethasone-caused diminution of incorporation of tritiated uridine (in words) / inhibition at 1 µM / inhibition at 0.1 µM / inhibition at 0.01 µM: 5·10^-8 M dexamethasone; for inhibition at 1 µM / inhibition at 0.1 µM / inhibition at 0.01 µM: Rattus norvegicus, Thymocyte, read-out: % inhibition of the effect of Dexamethasone; for inhibition at 1 µM: product tested 10^-6 M; for inhibition at 0.1 µM: product tested 10^-7 M; for inhibition at 0.01 µM: product tested 10^-8 M
Description: The technique employed was derived from the method described by Daune et al in Molecular Pharmacology, Vol. 13, 948-955 (1977) "The relationship between glucocorticold structure and effects upon thymocytes", for the thymocytes of the mouse. The thymocytes of surrenalectomised rats were incubated at 37° C. for 3 hours in a nutrient medium containing 5·10^-8 M of dexamethasone, in the presence or absence of a product to be studied at different concentrations. One added tritiated uridine, and continued the incubation for one hour. The incubates were cooled and treated with a 5% solution of trichloroacetic acid. After filtration on Whatman GF/A paper, and washing three times with a 5% trichloroacetic acid solution, the radioactivity retained by the filter was determined.

[4] = 37° C., 3 hours + 1 hour tritiated uridine

Row | SMILES | abortion (state of gestation) (gestation in the rat) | affinity for the glucocorticoid receptor (in words) [1] | relative bonding affinity (ARL), Glucocorticoid ([1]; time of incubation at 0°: 4H) | relative bonding affinity (ARL), Glucocorticoid ([1]; time of incubation at 0°: 24H) | affinity for the progestogen receptor (in words) [2] | relative bonding affinity (ARL), Progestogen ([2]; time of incubation at 0°: 2H) | relative bonding affinity (ARL), Progestogen ([2]; time of incubation at 0°: 24H) | opposition to the dexamethasone-caused diminution of incorporation of tritiated uridine (in words) [3] | inhibition at 1 µM [3, 4] [%] | inhibition at 0.1 µM [3, 4] [%] | inhibition at 0.01 µM [3, 4] [%] | inhibition at 1 µM ([3]; symbol explained in footnote) [%] | incorporation of tritiated uridine (in words) ([3]; effect of glucocorticoid alone)
1 | C#Cc1ccc([C@H]2C[C@@]3(C)[C@@H](CC[C@@]3(O)C#CC)[C@@H]3CCC4=CC(=O)CCC4=C32)cc1 [Example 3, 11β-(4-ethynylphenyl)-17α-(1-propynyl)-Δ^4,9-estradien-17β-ol-3-one] | complete abortion in all the animals | very marked affinity | 107 | 124 | very marked affinity | 44 | 167 | – | – | – | – | – | –
2 | C#Cc1ccc([C@H]2C[C@@]3(C)[C@@H](CC[C@@]3(O)CC=C)[C@@H]3CCC4=CC(=O)CCC4=C32)cc1 [Example 4, 11β-(4-ethynylphenyl)-17α-allyl-Δ^4,9-estradien-17β-ol-3-one] | complete abortion in all the animals | very marked affinity | 65 | 57 | very marked affinity | 41 | 124 | oppose this effect | 99 | 71 | 46 | – | –
3 | C#Cc1ccc([C@H]2C[C@@]3(C)[C@@H](CC[C@@]3(O)C#CCl)[C@@H]3CCC4=CC(=O)CCC4=C32)cc1 [Example 5, 17α-(chloroethynyl)-11β-(4-ethynylphenyl)-Δ^4,9-estradien-17β-ol-3-one] | complete abortion in all the animals | very marked affinity | 84 | 153 | very marked affinity | 51 | 325 | oppose this effect | – | 84 | 47 | 100 | –
4 | C#Cc1ccc([C@H]2C[C@@]3(C)[C@@H](CC[C@@]3(O)C#CCl)[C@@H]3CCC4=CC(=O)CC[C@]45O[C@]235)cc1 [Example 8, 17α-chloroethynyl-9α,10α-epoxy-11β-(4-ethynylphenyl)-17-Δ^4-estraen-17β-ol-3-one] | complete abortion in all the animals | very marked affinity | 175 | 233 | very marked affinity | 38 | 285 | oppose this effect | 77 | 37 | 7 | – | –
5 | C[C@@H]1C[C@H]2[C@@H]3CCC4=CC(=O)C=C[C@]4(C)[C@@]3(F)[C@@H](O)C[C@]2(C)[C@@]1(O)C(=O)CO [dexamethasone, reference compound] | – | – | – | – | – | – | – | – | – | – | – | – | cause a diminution of the incorporation of tritiated uridine
